Counter-ions that a name gives are not always drawn.
Legend:
thrombin = target: T1, thrombin (Homo sapiens, UniProt P00734); experiment: Thrombin inhibition constant (Ki), fluorogenic substrate assay; format: biochemical; conditions: for Cycloargatroban vs. Argatroban, Ki(Thrombin): thrombin inhibition activity relative to argatroban
T1 construct: purchased Sigma

[1] = target: T2, tissue plasminogen activator (tPA) (Homo sapiens, UniProt P00750); experiment: tPA inhibition constant (Ki), fluorogenic substrate assay; format: biochemical
T2 construct: purchased Sigma
Protocol: The activity and selectivity of the present invention can be identified by determination of the inhibition constant (Ki) for serine proteases such thrombin and trypsin and fibrinolytic enzymes such as urokinase, plasmin and tissue plasminogen activator (tPA). All of enzymes are purchased from Sigma. The general assay conditions are as follows. The fluorogenic substrates are dissolved in DMSO and diluted using assay buffer containing 50 mM Tris.HCl (pH 7.8 at 25° C.), 0.1 M NaCl and 0.1% polyethylene glycol 8000 (PEG 8000). […] The assays were conducted using Hitachi F2500 spectrophotometer under ambient temperature and at the excitation and emission wavelengths of 383 nm and 455 nm, respectively. The typical progressive data of the enzymatic assays are shown in FIGS. 1-3, and the determination of inhibition constant (Ki) is shown in FIG. 4.

[2] = Acute toxicity, intravenous injection, determination of LD50; format: in vivo, mice; conditions: both sexes, ICR, mouse, in vivo, iv, ICR mice, single i.v., Bliss method
Description: (§1) 1) Determination of LD50 (Tables III and IV): ICR mice, 18 ˜20 g, were divided into five groups, with 10 animals in each group (half male and half female). The ratio of doses between groups was 1:0.85.

ICR mice = experiment: as above; format: in vivo; conditions: for Number of deaths: 10 mice
Description: as §1

T2 sequence (P00750 36-562, species assumed): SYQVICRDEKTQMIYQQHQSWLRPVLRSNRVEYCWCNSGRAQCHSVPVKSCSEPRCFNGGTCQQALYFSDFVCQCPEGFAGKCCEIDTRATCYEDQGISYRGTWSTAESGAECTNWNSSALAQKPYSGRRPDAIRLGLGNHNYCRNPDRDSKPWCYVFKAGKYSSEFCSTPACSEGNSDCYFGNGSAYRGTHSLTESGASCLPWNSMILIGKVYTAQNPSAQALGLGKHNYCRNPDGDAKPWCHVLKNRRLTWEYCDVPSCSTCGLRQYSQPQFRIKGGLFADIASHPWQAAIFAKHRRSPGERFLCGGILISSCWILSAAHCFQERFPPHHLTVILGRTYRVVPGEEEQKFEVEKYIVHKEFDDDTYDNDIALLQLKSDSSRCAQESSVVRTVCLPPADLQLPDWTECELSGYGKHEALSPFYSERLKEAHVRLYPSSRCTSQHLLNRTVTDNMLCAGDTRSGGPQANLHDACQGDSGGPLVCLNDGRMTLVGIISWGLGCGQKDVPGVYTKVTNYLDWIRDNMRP

SMILES: CC1CNc2c(cccc2S(=O)(=O)N2C(=O)C3CC(C)CCN3C(=O)C2CCCNC(=N)N)C1 [NPI1999, (3S,6R,8R)-Bicyclo[4.4.0]-1,4-diaza-3-(3-guanidinopropyl)-4-N-(1,2,3,4-tetrahydro-3-methyl-8-quinolinesulfonyl)-8-methyl-2,5-decanedione, hydrochoride salt]
- Ki (thrombin; Table II, method of example 9): 0.02 to 0.04 µM
- Ki (thrombin; substrate Tos-Gly-Pro-Arg-AMC, pH 7.8): 0.04 µM
- Cycloargatroban vs. Argatroban, Ki(Thrombin) (thrombin; listed as Cycloargatroban): −2.1 fold
- Cycloargatroban vs. Argatroban, Ki(Thrombin) (thrombin; listed as cycloargatroban): 2.1 fold
- Cycloargatroban [Ki (Enzyme)/Ki (Thrombin)] vs. Argatroban [Ki (Enzyme)/Ki (Thrombin)] ([1]; enzyme = tPA): +1.2 fold
- Ki ([1]; substrate Boc-L-(p-F) FPR-ANSNH-C2H5): 2020 µM
- 95% confidence interval of LD50 at 2 weeks [2]: 10 to 11.9 mg/kg
- LD50 at 2 weeks ([2]; observed 2 weeks): 10.9 mg/kg
- Death rate (%) (ICR mice; i.v. 7.83 mg/kg): 0%
- Number of deaths (ICR mice; i.v. 7.83 mg/kg): 0
- Number of death (ICR mice; i.v. 7.83 mg/kg, ♀, 4-13 days after administration): 0
- Number of death (ICR mice; i.v. 7.83 mg/kg, ♀, 1 day after administration): 0
- Number of death (ICR mice; i.v. 7.83 mg/kg, ♀, 2 days after administration): 0
- Number of death (ICR mice; i.v. 7.83 mg/kg, ♀, 3 days after administration): 0
- Number of death (ICR mice; i.v. 7.83 mg/kg, ♀, day of administration): 0
- Number of death (ICR mice; i.v. 7.83 mg/kg, ♂, 4-13 days after administration): 0
- Number of death (ICR mice; i.v. 7.83 mg/kg, ♂, 1 day after administration): 0
- Number of death (ICR mice; i.v. 7.83 mg/kg, ♂, 2 days after administration): 0
- Number of death (ICR mice; i.v. 7.83 mg/kg, ♂, 3 days after administration): 0
- Number of death (ICR mice; i.v. 7.83 mg/kg, ♂, day of administration): 0
- Death rate (%) (ICR mice; i.v. 9.21 mg/kg): 30%
- Number of deaths (ICR mice; i.v. 9.21 mg/kg): 3
- Number of death (ICR mice; i.v. 9.21 mg/kg, ♀, 4-13 days after administration): 0
- Number of death (ICR mice; i.v. 9.21 mg/kg, ♀, 1 day after administration): 0
- Number of death (ICR mice; i.v. 9.21 mg/kg, ♀, 2 days after administration): 0
- Number of death (ICR mice; i.v. 9.21 mg/kg, ♀, 3 days after administration): 0
- Number of death (ICR mice; i.v. 9.21 mg/kg, ♀, day of administration): 2
- Number of death (ICR mice; i.v. 9.21 mg/kg, ♂, 4-13 days after administration): 0
- Number of death (ICR mice; i.v. 9.21 mg/kg, ♂, 1 day after administration): 0
- Number of death (ICR mice; i.v. 9.21 mg/kg, ♂, 2 days after administration): 0
- Number of death (ICR mice; i.v. 9.21 mg/kg, ♂, 3 days after administration): 0
- Number of death (ICR mice; i.v. 9.21 mg/kg, ♂, day of administration): 1
- Death rate (%) (ICR mice; i.v. 10.84 mg/kg): 50%
- Number of deaths (ICR mice; i.v. 10.84 mg/kg): 5
- Number of death (ICR mice; i.v. 10.84 mg/kg, ♀, 4-13 days after administration): 0
- Number of death (ICR mice; i.v. 10.84 mg/kg, ♀, 1 day after administration): 0
- Number of death (ICR mice; i.v. 10.84 mg/kg, ♀, 2 days after administration): 0
- Number of death (ICR mice; i.v. 10.84 mg/kg, ♀, 3 days after administration): 0
- Number of death (ICR mice; i.v. 10.84 mg/kg, ♀, day of administration): 3
- Number of death (ICR mice; i.v. 10.84 mg/kg, ♂, 4-13 days after administration): 0
- Number of death (ICR mice; i.v. 10.84 mg/kg, ♂, 1 day after administration): 0
- Number of death (ICR mice; i.v. 10.84 mg/kg, ♂, 2 days after administration): 0
- Number of death (ICR mice; i.v. 10.84 mg/kg, ♂, 3 days after administration): 0
- Number of death (ICR mice; i.v. 10.84 mg/kg, ♂, day of administration): 2
- Death rate (%) (ICR mice; i.v. 12.75 mg/kg): 80%
- Number of deaths (ICR mice; i.v. 12.75 mg/kg): 8
- Number of death (ICR mice; i.v. 12.75 mg/kg, ♀, 4-13 days after administration): 0
- Number of death (ICR mice; i.v. 12.75 mg/kg, ♀, 1 day after administration): 0
- Number of death (ICR mice; i.v. 12.75 mg/kg, ♀, 2 days after administration): 0
- Number of death (ICR mice; i.v. 12.75 mg/kg, ♀, 3 days after administration): 0
- Number of death (ICR mice; i.v. 12.75 mg/kg, ♀, day of administration): 4
- Number of death (ICR mice; i.v. 12.75 mg/kg, ♂, 4-13 days after administration): 0
- Number of death (ICR mice; i.v. 12.75 mg/kg, ♂, 1 day after administration): 0
- Number of death (ICR mice; i.v. 12.75 mg/kg, ♂, 2 days after administration): 0
- Number of death (ICR mice; i.v. 12.75 mg/kg, ♂, 3 days after administration): 0
- Number of death (ICR mice; i.v. 12.75 mg/kg, ♂, day of administration): 4
- Death rate (%) (ICR mice; i.v. 15.00 mg/kg): 90%
- Number of deaths (ICR mice; i.v. 15.00 mg/kg): 9
- Number of death (ICR mice; i.v. 15.00 mg/kg, ♀, 4-13 days after administration): 0
- Number of death (ICR mice; i.v. 15.00 mg/kg, ♀, 1 day after administration): 0
- Number of death (ICR mice; i.v. 15.00 mg/kg, ♀, 2 days after administration): 0
- Number of death (ICR mice; i.v. 15.00 mg/kg, ♀, 3 days after administration): 0
- Number of death (ICR mice; i.v. 15.00 mg/kg, ♀, day of administration): 4
- Number of death (ICR mice; i.v. 15.00 mg/kg, ♂, 4-13 days after administration): 0
- Number of death (ICR mice; i.v. 15.00 mg/kg, ♂, 1 day after administration): 0
- Number of death (ICR mice; i.v. 15.00 mg/kg, ♂, 2 days after administration): 0
- Number of death (ICR mice; i.v. 15.00 mg/kg, ♂, 3 days after administration): 0
- Number of death (ICR mice; i.v. 15.00 mg/kg, ♂, day of administration): 5

From patent US20050096323A1, “Diketopiperazine derivatives to inhibit thrombin” (NovoScience Pharma Inc., priority 1999, published 2005)
